Reference: patent US5962487A, “Antipicornaviral compounds and methods for their use and preparation” (Agouron Pharmaceuticals, Inc., priority 1997, dated 1999)

Test system: HRV-14
Experiment: Antirhinoviral HI-HeLa Cell Culture Assay (cell protection, XTT), HRV-14
Format: cell-based, human rhinovirus
Method in brief: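 Read-out is XTT/PMS formazan at 450/650 nm, measured two days after compound exposure of HI-HeLa cells (8×10^5 cells/mL) infected at m.o.i. 0.13 or mock-infected. EC50: protection to 50% of compound-free mock-infected signal; CC50: 50% loss in mock-infected cells; TI is their ratio.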

CCOC(=O)/C=C/[C@H](CCC(N)=O)NC(=O)[C@H](Cc1ccccc1)N(C)C(=O)[C@H](CC(C)C)NC(=O)OCc1ccccc1 [Compound 2, Ethyl-3-(CBZ-L-Leu-L-N-Me-Phe-L-Gln)-E-Propenoate]
TI (CC50/EC50, HRV serotype-14, 2880 min): 56 | EC50 (Rhinovirus B, HRV14, 48 h, HRV serotype-14 infected HI-HeLa cells, XTT, two days): 1000 nM
